How the values were obtained:
[1] = tested on: pigs subjected to rapid pacing; test: rapid-paced pig model of heart failure (Example 2); type: in vivo; settings: for LV End-Systolic Pressure / Pulmonary Vascular Resistance / Systemic Vascular Resistance / Plasma Norepinephrine: Day 21 of pacing, 793 2 mg/kg/day PO, F […] BID PO; for LV End-Systolic Pressure / Pulmonary Vascular Resistance / Systemic Vascular Resistance: pacer off; for LV End-Systolic Pressure / Plasma Norepinephrine: spread printed in the next line; for Pulmonary Vascular Resistance / Systemic Vascular Resistance: spread printed in the next lines; for LV end-diastolic dimension (dilation), in words / LV wall stress, in words: echocardiography, 3-week pacing period
MMP-3 (stromelysin) = MMP-3 (stromelysin) (Homo sapiens, UniProt P08254); test: thiopeptolide substrate hydrolysis assay, MMP-3; type: biochemical; settings: pH 6.0, 22° C., read-out: IC50 MMP3
Protocol: The assays measure the amount by which a test compound reduces the hydrolysis of a thiopeptolide substrate caused by a matrix metalloproteinase enzyme.
Thiopeptolide substrates show virtually no decomposition or hydrolysis in the absence of a matrix metalloproteinase enzyme. A typical thiopeptolide substrate commonly utilized for assays is Ac-Pro-Leu-Gly-thioester-Leu-Leu-Gly-O Et. […] Assays are carried out with and without matrix metalloproteinase inhibitor compounds, and the amount of hydrolysis is compared for a determination of inhibitory activity of the test compounds.

[2] = tested on: spontaneously hypertensive heart failure (SHHF) rats; test: 8-month progression study in SHHF rats (Example 1); type: in vivo, rat; settings: for LVEDP (left ventricular end-diastolic pressure) / LVESP (left ventricular end-systolic pressure) / LVV-OP: SHHF rats, 8 months in diet; for LVEDP (left ventricular end-diastolic pressure) / LVESP (left ventricular end-systolic pressure): PD 166793 5 mg/kg/day, quinapril 10 mg/kg/day or both; for LVV-OP: left ventricular pressure volume relations, KCl arrested heart
Protocol: Five groups of rats (n=14 per group) were tested: 17-month-old normotensive Fischer control Rats (F-1 7); vehicle treated 17-month-old SHHF Rats (SHHF-17); PD 166793-0000 (Lot Y) SHHF Rats (SHHF-793); Quinapril (PD 109452-0002, Lot Y) SHHF Rats (SHHF-Q); PD 166793 +Quinapril SHHF Rats (SHHF-793Q). Naive Fischer rats were acclimatized 2 weeks prior to testing. All SHHF rats were maintained in-house, administered drug for 8 months, and then cardiovascular tests were performed and tissue samples taken. The primary endpoint for the study was the prevention of cardiac dilation as determined by left ventricular pressure volume relations in the excised KCI arrested heart.
Drug Administration: All SHHF rats were fed powdered rat chow for 1 week prior to drug administration, and daily food consumption was measured by weighing the foodcups. Drug was added to powdered rat chow so that rats consumed their daily dose of PD 166793 (5 mg/kg/day), quinapril (10 mg/kg/day), or both drugs in combination. Food consumption was monitored twice weekly.
Terminal Cardiovascular Test: Rats were anesthetized with isoflurane for terminal testing. Isoflurane was administered using a mask until the rats are anesthetized and a tracheotomy performed. The rats were respired using a ventilator (A.D.S. 1000, Engler Engineering Corp., Hialeah, Fla.). Cardiac function was assessed in closed-chest rats by measuring LV dP/dt, LV end-diastolic pressure (EDP), heart rate, and aortic blood pressure using a Millar pressure transducer inserted through the right carotid. Physiological data was recorded at 500 Hz, and a logging rate of 5 seconds was used to average data. […] Baseline measurements were made when the rats reached a stable plateau of anesthesia. Normotensive rats had their blood pressure increased by partial occlusion of the aorta so that cardiovascular function could be assessed at a pressure of 180 mmHg, the projected blood pressure of SHHF rats. Approximately 4 to 5 mL of blood were withdrawn in ice-cold syringes and then transferred to ice-cold EDTA tubes. Blood was centrifuged at 4500 RPM for 10 minutes so that plasma could be stored for drug measurements, and measuring collagen breakdown products. The heart was arrested with KCl and rapidly excised. A glass cannula was inserted through the aorta into the LV chamber, and secured into place by a ligature around the atrio-ventricular groove. Cardiac dilation was measured by generating left ventricular pressure volume (PV) curves. The PV curves was generated by evacuating the LV of saline and then filling the LV at a fixed rate using a programmable pump set at a 1 mL/min flow rate. The PV curves were recorded on a Po-Ne-Mah digital data acquisition system. A 2 to 3 mm cross-section of the heart was removed (at the level of the papillary muscles). The remainder of the heart was rapidly divided into RV and LV tissue that was frozen in liquid N2 for subsequent weighing and biochemical analysis. The cross-sections were fixed in buffered formalin for histology. This procedure will allow LV, and RV weights to be determined and hypertrophy to be assessed.

[3] = PD 166793 plasma levels in SHHF rats (Example 1); type: in vivo; settings: rat, po, 5 mg/kg/day PD 166793 in diet, 8 months
Protocol: Drug Administration: […] Food consumption was monitored twice weekly. Terminal Cardiovascular Test: Rats were anesthetized with isoflurane for terminal testing. Isoflurane was administered using a mask until the rats are anesthetized and a tracheotomy performed. The rats were respired using a ventilator ([…] Engineering Corp., Hialeah, Fla.). Cardiac function was assessed in closed-chest rats by measuring LV dP/dt, LV end-diastolic pressure (EDP), heart rate, and aortic blood pressure using a Millar pressure transducer inserted through the right carotid. Physiological data was recorded at 500 Hz, and a logging rate of 5 seconds was used to average data. […] Baseline measurements were made when the rats reached a stable plateau of anesthesia. […] Approximately 4 to 5 mL of blood were withdrawn in ice-cold syringes and then transferred to ice-cold EDTA tubes. […] The heart was arrested with KCl and rapidly excised. A glass cannula was inserted through the aorta into the LV chamber, and secured into place by a ligature around the atrio-ventricular groove. Cardiac dilation was measured by generating left ventricular pressure volume (PV) curves. […] The PV curves were recorded on a Po-Ne-Mah digital data acquisition system. […] This procedure will allow LV, and RV weights to be determined and hypertrophy to be assessed.

[4] = tested on: spontaneously hypertensive heart failure (SHHF) rats; test: previous 4-month experiment in SHHF rats; type: in vivo, rat; settings: for cardiac dilation, in words / left ventricular (LV) systolic function, in words: 4 months
in vivo = settings: pig, po, 2 mg/kg/day
fibroblast = settings: tissue culture cells; cited from earlier work
[5] = relative to untreated rapid-paced pigs, FIG. 5

MMP-3 (stromelysin), sequence (P08254 100-272 limits assumed): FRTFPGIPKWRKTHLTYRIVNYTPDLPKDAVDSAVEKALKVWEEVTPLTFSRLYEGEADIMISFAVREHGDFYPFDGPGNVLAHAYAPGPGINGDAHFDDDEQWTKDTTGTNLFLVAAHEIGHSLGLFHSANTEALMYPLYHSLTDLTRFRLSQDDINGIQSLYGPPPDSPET

Row | Compound | LV End-Systolic Pressure [1] [mmHg] | Pulmonary Vascular Resistance [1] [dynes*s*cm^-5] | Systemic Vascular Resistance [1] [dynes*s*cm^-5] | Plasma Norepinephrine [1] [pg/mL] | LV end-diastolic dimension (dilation), in words [1] | LV wall stress, in words [1] | LVEDP (left ventricular end-diastolic pressure) [2] [mmHg] | LVESP (left ventricular end-systolic pressure) [2] [mmHg] | LVV-OP [2] [µL] | cardiac dilation, in words [4] | left ventricular (LV) systolic function, in words [4] | also measured
1 | CCC(=O)O[C@@H](O[P@](=O)(CCCCc1ccccc1)CC(=O)N1C[C@H](C2CCCCC2)C[C@H]1C(=O)O)C(C)C [fosinopril] | 100 | 266 | 1529 | 618 | reduce wall stress and end diastolic dimension | reduce wall stress |  |  |  |  |  | systolic function, slope of circumferential velocity over end-systolic stress relation (Vcfc-ES Stress), in words ([1]; compared to nontreated rapid-paced animals, FIG. 4): significantly improved systolic function; LV end-diastolic dimension (dilation), in words ([1]; listed as Fosinopril): more effective than the PD 166793 in reducing dilation; systolic function measured as preload recruitable stroke work (PRSW), in words ([1]; rapid-paced pigs, FIG. 3): improved systolic function to the greatest extent
2 | CC(C)CC(CC(=O)NO)C(=O)N[C@@H](CC(C)C)C(=O)N[C@@H](Cc1ccccc1)C(N)=O (stereo partly shown) [U24522] |  |  |  |  |  |  |  |  |  |  |  | IC50 (MMP-3 (stromelysin)): 20 nM
3 | CC(C)C(NS(=O)(=O)c1ccc(-c2ccc(Br)cc2)cc1)C(=O)O (stereo not shown) [PD 166793, 2-(4'-bromobiphenyl-4-sulfonylamino)-3-methyl-butyric acid] | 110 | 417 | 2784 | 736 | reduce wall stress and end diastolic dimension | reduce wall stress | 18 ± 3 | 188 ± 8 | 820 ± 58 | significantly reducing cardiac dilation | maintaining left ventricular (LV) systolic function | concentration at 5840 h [3]: 50100 ± 7100 ng/mL; LV chamber stiffness, in words [1, 5]: increased both LV chamber stiffness and myocardial stiffness; myocardial stiffness, in words [1, 5]: increased both LV chamber stiffness and myocardial stiffness; mechanism (vasodilator, anti-hypertrophic), in words [4]: neither a vasodilator, nor an anti-hypertrophic; concentration at 1 h (in vivo): 10800 ± 1200 ng/mL
4 | NNC(=O)c1ccccc1 [Benzoic hydrazide, benzoic hydrazide] |  |  |  |  |  |  |  |  |  |  |  | collagen synthesis, in words (fibroblast): suppress collagen synthesis; fibroblast proliferation, in words (fibroblast): suppress collagen synthesis and fibroblast proliferation
5 | CCOC(=O)[C@H](CCc1ccccc1)N[C@@H](C)C(=O)N1Cc2ccccc2C[C@H]1C(=O)O [quinapril] |  |  |  |  |  |  | 17 ± 4 | 190 ± 7 | 603 ± 99 | A similar effect was also observed | A similar effect was also observed | LV weight, in words ([2]; compared to the vehicle control group): reduced

From patent US6133304A, “ACE inhibitor-MMP inhibitor combinations” (priority 2000, dated 2000)
